Reference: ChEMBL document CHEMBL1201862, “PubChem BioAssay data set” (2004)
Activity calls are given as the source filed them. No rule for the calls is given here.

Target: T1, Exodeoxyribonuclease V (Escherichia coli (strain K12), UniProt P04993+P07648+P08394)
T1 sequence (P04993 whole entry): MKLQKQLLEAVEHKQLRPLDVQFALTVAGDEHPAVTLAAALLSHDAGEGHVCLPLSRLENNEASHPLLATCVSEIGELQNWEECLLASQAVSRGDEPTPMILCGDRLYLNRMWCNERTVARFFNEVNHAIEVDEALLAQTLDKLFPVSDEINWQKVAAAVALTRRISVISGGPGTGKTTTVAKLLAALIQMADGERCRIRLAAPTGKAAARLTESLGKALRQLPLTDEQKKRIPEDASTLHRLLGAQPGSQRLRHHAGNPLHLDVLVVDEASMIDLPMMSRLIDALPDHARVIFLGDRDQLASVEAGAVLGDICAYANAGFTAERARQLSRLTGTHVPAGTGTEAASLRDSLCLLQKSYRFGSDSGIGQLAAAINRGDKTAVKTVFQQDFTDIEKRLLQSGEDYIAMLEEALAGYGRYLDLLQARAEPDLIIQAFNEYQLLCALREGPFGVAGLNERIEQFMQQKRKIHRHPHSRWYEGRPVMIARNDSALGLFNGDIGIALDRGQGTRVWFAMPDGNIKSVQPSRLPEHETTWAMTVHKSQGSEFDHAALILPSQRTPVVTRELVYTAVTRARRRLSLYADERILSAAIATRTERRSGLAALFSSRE
T1 sequence (P07648 whole entry): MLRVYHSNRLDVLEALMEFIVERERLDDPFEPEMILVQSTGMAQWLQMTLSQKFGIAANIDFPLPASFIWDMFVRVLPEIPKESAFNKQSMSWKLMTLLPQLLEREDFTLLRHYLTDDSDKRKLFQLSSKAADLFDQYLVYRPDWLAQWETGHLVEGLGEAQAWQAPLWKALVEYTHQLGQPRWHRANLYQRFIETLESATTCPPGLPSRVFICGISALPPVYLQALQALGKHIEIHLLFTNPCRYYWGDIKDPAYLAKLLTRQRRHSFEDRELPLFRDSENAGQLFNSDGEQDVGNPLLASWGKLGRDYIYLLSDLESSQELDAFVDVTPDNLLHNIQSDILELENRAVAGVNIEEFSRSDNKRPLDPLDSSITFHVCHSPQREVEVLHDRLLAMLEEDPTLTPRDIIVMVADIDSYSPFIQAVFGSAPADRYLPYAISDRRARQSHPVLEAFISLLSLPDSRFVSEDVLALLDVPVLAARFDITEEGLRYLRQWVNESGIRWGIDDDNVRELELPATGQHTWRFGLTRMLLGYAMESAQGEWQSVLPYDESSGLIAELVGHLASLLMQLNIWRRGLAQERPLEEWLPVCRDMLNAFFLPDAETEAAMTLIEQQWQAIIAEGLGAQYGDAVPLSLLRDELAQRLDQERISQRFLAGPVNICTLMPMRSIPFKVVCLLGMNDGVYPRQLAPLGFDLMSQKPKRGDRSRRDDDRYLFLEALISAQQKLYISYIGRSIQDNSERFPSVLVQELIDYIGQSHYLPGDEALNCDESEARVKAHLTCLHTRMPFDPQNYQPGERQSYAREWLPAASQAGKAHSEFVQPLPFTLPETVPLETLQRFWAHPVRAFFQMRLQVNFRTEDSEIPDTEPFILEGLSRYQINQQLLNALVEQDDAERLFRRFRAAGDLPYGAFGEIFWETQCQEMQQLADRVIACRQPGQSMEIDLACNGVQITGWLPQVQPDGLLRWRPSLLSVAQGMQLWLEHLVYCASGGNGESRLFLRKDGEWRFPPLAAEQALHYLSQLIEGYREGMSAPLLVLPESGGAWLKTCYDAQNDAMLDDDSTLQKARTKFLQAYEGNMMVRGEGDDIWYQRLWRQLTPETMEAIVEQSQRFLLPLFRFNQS
T1 sequence (P08394 whole entry): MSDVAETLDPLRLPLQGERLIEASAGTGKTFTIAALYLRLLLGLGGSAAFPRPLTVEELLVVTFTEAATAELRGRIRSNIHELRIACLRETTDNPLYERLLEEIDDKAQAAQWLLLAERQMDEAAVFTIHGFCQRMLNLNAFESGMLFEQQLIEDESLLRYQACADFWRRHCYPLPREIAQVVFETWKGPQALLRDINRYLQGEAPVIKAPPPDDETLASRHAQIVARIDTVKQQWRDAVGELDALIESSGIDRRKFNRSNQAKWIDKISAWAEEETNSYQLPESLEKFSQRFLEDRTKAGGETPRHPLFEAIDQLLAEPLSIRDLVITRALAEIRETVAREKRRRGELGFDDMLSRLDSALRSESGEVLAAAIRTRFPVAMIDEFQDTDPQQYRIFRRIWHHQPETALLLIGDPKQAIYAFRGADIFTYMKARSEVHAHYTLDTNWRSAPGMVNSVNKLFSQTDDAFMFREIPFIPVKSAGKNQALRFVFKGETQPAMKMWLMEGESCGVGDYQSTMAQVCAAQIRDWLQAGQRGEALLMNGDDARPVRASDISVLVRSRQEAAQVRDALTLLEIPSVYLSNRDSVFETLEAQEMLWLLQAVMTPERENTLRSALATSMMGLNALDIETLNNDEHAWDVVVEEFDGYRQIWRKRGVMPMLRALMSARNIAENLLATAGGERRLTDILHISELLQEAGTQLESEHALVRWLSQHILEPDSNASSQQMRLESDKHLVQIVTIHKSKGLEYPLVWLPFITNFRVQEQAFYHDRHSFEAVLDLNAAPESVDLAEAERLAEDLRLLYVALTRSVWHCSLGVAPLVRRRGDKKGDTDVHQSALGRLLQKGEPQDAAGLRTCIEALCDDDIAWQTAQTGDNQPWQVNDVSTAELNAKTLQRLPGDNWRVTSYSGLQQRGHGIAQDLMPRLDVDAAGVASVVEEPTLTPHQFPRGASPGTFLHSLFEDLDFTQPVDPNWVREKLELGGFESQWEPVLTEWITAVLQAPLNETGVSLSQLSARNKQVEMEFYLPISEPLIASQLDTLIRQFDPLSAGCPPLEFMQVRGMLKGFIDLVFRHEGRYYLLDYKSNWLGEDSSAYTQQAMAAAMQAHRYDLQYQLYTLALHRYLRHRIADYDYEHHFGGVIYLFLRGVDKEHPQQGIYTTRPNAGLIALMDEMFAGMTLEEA
Experiment: RecBCD inhibition via phage-restricted bacterial growth – absorbance, V66 E. coli, mutant T4 phage, counter-screen for AddAB inhibitor project, dose response (AID 492957)
Assay type: functional, cell-based, Escherichia coli str. K-12 substr. MG1655

Structure (SMILES): COc1ccc(C(NC(=O)C(C)C)c2ccc3cccnc3c2O)cc1 (configuration not stated)
- IC50: > 119 µM (inactive)

Structure (SMILES): O=C(Cc1ccc([N+](=O)[O-])cc1)N/N=C/c1ccc([N+](=O)[O-])o1
- IC50: > 39.5 µM (inactive)
